Source: patent US20250111889A1, “DE NOVO DESIGNED MACROCYCLIC OLIGOAMIDES” (UNIVERSITY OF WASHINGTON, priority 2022, published 2025)
Where a SMILES comes first, the peptide text is derived from it. Bridges are numbered along the chain shown (N, C = ends). [ ]: non-standard residue; d: D form. Trp(6-Cl) = N[C@@H](Cc1c[nH]c2cc(Cl)ccc12)C(=O)O; NMePhe(2,4-Me2) = CN[C@@H](Cc1ccc(C)cc1C)C(=O)O; dNMePhe(2,4-Me2) = CN[C@H](Cc1ccc(C)cc1C)C(=O)O; NMePhe(2-Me) = CN[C@@H](Cc1ccccc1C)C(=O)O; NMeNva = CCC[C@H](NC)C(=O)O

Target: T1, SARS-CoV-2 main protease (Severe acute respiratory syndrome coronavirus 2, UniProt P0DTD1)
T1 construct: SARS-CoV-2 main protease
Test: SARS-CoV-2 main protease assay (fluorescence time-course)
Format: biochemical
Conditions: 10-dose singlet, 3-fold serial dilution starting at 200 uM; increase in fluorescence signal
Description: SARS-CoV-2 main protease: The compounds were tested in 10-dose IC50 singlet with a 3-fold serial dilution starting at 200 uM. The protease activities were monitored as a time-course measurement of the increase in fluorescence signal.

Row | SMILES | IC50
1 | O=C1C[C@H](Cc2c(F)c(F)c(F)c(F)c2F)NC(=O)[C@H](Cc2cccnc2)NC(=O)[C@H](Cc2cccc(C(F)(F)F)c2)NC(=O)Cc2ccccc2N1 [Compound 131] | 4.07 µM
2 | O=C1C[C@H](Cc2ccccc2Cl)NC(=O)[C@H](Cc2cccnc2)NC(=O)[C@H](Cc2cccc(Cl)c2)NC(=O)Cc2ccccc2N1 [Compound 132] | 1.25 µM
3 | Cc1ccccc1C[C@@H]1NC(=O)Cc2ccccc2NC(=O)C[C@H](Cc2ccccc2Cl)NC(=O)[C@H](Cc2cccnc2)NC1=O [Compound 133] | 0.844 µM
4 | O=C1C[C@H](Cc2ccc(Br)cc2)NC(=O)[C@H](Cc2cccnc2)NC(=O)[C@H](Cc2cccc(Cl)c2)NC(=O)Cc2ccccc2N1 [Compound 134] | 1.22 µM
5 | Cc1cccc(C[C@H]2CC(=O)Nc3ccccc3CC(=O)N[C@@H](Cc3ccccc3C)C(=O)N[C@@H](Cc3cccnc3)C(=O)N2)c1 [Compound 135] | 1.47 µM
6 | O=C1C[C@H](Cc2ccc(Cl)c(Cl)c2)NC(=O)[C@H](Cc2cccnc2)NC(=O)[C@H](Cc2cccc(C(F)(F)F)c2)NC(=O)Cc2ccccc2N1 [Compound 136] | 1.47 µM
7 | O=C1C[C@H](Cc2ccc(Br)cc2)NC(=O)[C@H](Cc2cccnc2)NC(=O)[C@H](Cc2cccc(C(F)(F)F)c2)NC(=O)Cc2ccccc2N1 [Compound 137] | 1.27 µM
8 | Cc1cccc(C[C@H]2CC(=O)Nc3ccccc3CC(=O)N[C@@H](Cc3cccc(C(F)(F)F)c3)C(=O)N[C@@H](Cc3cccnc3)C(=O)N2)c1 [Compound 138] | 2.14 µM
9 | Cc1ccccc1C[C@@H]1NC(=O)Cc2ccccc2NC(=O)C[C@H](Cc2c(F)c(F)c(F)c(F)c2F)NC(=O)[C@H](Cc2cccnc2)NC1=O [Compound 139] | 2.37 µM
10 | Cc1ccccc1C[C@@H]1NC(=O)Cc2ccccc2NC(=O)C[C@H](Cc2cc(F)c(F)cc2F)NC(=O)[C@H](Cc2cccnc2)NC1=O [Compound 140] | 1.53 µM
11 | O=C1C[C@H](Cc2ccc(F)cc2)NC(=O)[C@H](Cc2cccnc2)NC(=O)[C@H](Cc2cccc(Cl)c2)NC(=O)Cc2ccccc2N1 [Compound 141] | 1.84 µM
12 | Cc1ccccc1C[C@@H]1NC(=O)Cc2ccccc2NC(=O)C[C@H](Cc2ccc(Cl)c(Cl)c2)NC(=O)[C@H](Cc2cccnc2)NC1=O [Compound 142] | 1.89 µM
13 | O=C1C[C@H](Cc2cccc(Cl)c2)NC(=O)[C@H](Cc2cccnc2)NC(=O)[C@H](Cc2cccc(Cl)c2)NC(=O)Cc2ccccc2N1 [Compound 143] | 2.65 µM
14 | O=C1C[C@H](Cc2ccccc2Cl)NC(=O)[C@H](Cc2cccnc2)NC(=O)[C@H](Cc2cccc(C(F)(F)F)c2)NC(=O)Cc2ccccc2N1 [Compound 144] | 1.26 µM
15 | Cc1ccccc1C[C@@H]1NC(=O)Cc2ccccc2NC(=O)C[C@H](Cc2ccccc2)NC(=O)[C@H](Cc2cccnc2)NC1=O [Compound 218] | 17.8 µM

Target: T2, MCL-1 (Homo sapiens, UniProt Q07820)
T2 construct: GST
T2 sequence (Q07820 whole entry, species assumed): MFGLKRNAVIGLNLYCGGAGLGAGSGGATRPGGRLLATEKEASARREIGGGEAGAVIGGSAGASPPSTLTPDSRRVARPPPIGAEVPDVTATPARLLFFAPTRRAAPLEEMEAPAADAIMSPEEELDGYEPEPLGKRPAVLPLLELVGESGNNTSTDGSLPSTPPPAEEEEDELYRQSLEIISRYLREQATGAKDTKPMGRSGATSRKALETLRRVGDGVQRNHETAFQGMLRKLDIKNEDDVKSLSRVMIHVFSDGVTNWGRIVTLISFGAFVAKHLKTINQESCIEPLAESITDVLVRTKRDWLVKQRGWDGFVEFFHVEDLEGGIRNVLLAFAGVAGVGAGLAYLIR
Test: MCL-1 assay (HTRF, Anti-GST-Tb)
Format: binding
Conditions: 10-dose singlet, 3-fold serial dilution starting at 200 uM; HTRF signal after 60 min
Description: MCL-1: The compounds were tested in 10-dose IC50 singlet with a 3-fold serial dilution starting at 200 uM. Compounds in DMSO were added to enzyme solution by using Acoustic Technology. Compounds were incubated with enzyme for 10 min. at room temperature. Respective compounds were then added, and the mixture incubated for another 10 min. Finally, Anti-GST-Tb was added. After 60 min incubation, the HTRF signal was measured.

Row | SMILES | IC50
16 | Cc1ccccc1CN1CC(=O)N[C@H](C(C)(C)C)C(=O)NCc2cccc(c2)CC(=O)N[C@H](Cc2ccc(Cl)c(Cl)c2)CC1=O [Compound 11] | 4.58 µM
17 | COc1cc(CN2CC(=O)NCc3ccccc3C(=O)N[C@@H](Cc3ccc(Cl)c(Cl)c3)C(=O)N(CCc3ccc(F)cc3)CC2=O)cc(OC)c1 [Compound 16] | 13.5 µM
18 | COc1cccc(CCN2CC(=O)N[C@H]3CC[C@H](CC3)CC(=O)N(CCc3ccc(C(F)(F)F)cc3)CC(=O)N(Cc3ccc(Cl)c(Cl)c3)CC2=O)c1 [Compound 18] | 28.2 µM
19 | CCOCCN1CC(=O)NCc2ccccc2C(=O)N[C@@H](Cc2ccc(Cl)c(Cl)c2)C(=O)N(CCc2ccc(F)cc2)CC1=O [Compound 19] | 40.6 µM
20 | COc1cccc(CCN2CC(=O)N[C@@H](C(C)C)CC(=O)NCc3cccc(c3)CC(=O)N[C@@H](Cc3ccc(Cl)c(Cl)c3)C2=O)c1 [Compound 29] | 22.8 µM
21 | Cc1ccc(C[C@@H]2NC(=O)CCCCNC(=O)CN(CCOc3c(C)cccc3C)C(=O)[C@@H](Cc3ccc(Cl)c(Cl)c3)N(C)C2=O)cc1 [Compound 119] | 18.9 µM
22 | CN1C(=O)CN(Cc2cccc(Br)c2)C(=O)CCCCNC(=O)[C@@H](Cc2ccc(C(C)(C)C)cc2)NC(=O)[C@@H]1Cc1ccc(Cl)c(Cl)c1 [Compound 121] | 50.1 µM
23 | CCC(CC)[C@H]1NC(=O)CN(Cc2ccc(Cl)c(Cl)c2)C(=O)[C@H](Cc2ccc(C(C)(C)C)cc2)NC(=O)CCCCNC1=O [Compound 122] | 12.3 µM

Target: T3, MDM2 (Homo sapiens, UniProt Q00987)
T3 construct: purchased PerkinElmer AL3168C
T3 sequence (Q00987 whole entry): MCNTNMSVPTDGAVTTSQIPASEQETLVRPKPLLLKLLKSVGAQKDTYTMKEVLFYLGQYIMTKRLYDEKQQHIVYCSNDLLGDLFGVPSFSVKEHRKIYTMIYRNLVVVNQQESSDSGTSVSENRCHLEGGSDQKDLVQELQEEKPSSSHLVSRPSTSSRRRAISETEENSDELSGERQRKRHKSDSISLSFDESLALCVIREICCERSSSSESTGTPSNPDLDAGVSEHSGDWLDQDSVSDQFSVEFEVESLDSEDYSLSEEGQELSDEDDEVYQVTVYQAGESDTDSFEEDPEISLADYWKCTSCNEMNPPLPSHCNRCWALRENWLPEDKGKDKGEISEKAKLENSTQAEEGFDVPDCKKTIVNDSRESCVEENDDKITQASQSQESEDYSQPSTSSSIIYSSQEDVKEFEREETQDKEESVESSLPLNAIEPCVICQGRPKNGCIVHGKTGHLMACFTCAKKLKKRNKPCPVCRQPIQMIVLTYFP
Test: MDM2 assay (commercial alphalisa kit, PerkinElmer AL3168C)
Format: binding
Conditions: alphalisa kit per manufacturer's instructions; quantity not given
Description: MDM2: The assay was performed using a commercially available alphalisa assay kit from PerkinElmer (part number AL3168C) following the manufacturer's instructions.

Row | SMILES | IC50
24 | CCC[C@H]1C(=O)N[C@@H](Cc2c[nH]c3cc(Cl)ccc23)C(=O)N(C)[C@@H](Cc2ccc(C)cc2C)C(=O)N[C@H](C(N)=O)CSCC(=O)N1C [Compound 32] ({CH2CO}-[NMeNva][Trp(6-Cl)][NMePhe(2,4-Me2)]C-NH2; thioether N-4) | 100 µM
25 | Cc1ccc(C[C@@H]2C(=O)N[C@@H](Cc3c[nH]c4cc(Cl)ccc34)C(=O)N(C)[C@@H](Cc3ccccc3C)C(=O)N[C@H](C(N)=O)CSCC(=O)N2C)c(C)c1 [Compound 35] ({CH2CO}-[dNMePhe(2,4-Me2)][Trp(6-Cl)][NMePhe(2-Me)]C-NH2; thioether N-4) | 20 µM

Tested on: not listed separately
Test: in vitro
Format: in vitro ADME
Conditions: PAMPA
From the text: We measured the passive membrane diffusion of all 29 macrocycles designed with the two approaches using the parallel artificial membrane permeability assay (PAMPA) (FIGS. 3, 4, and 16). Almost all of the macrocycles were quite membrane permeable: 16 of the 29 had log(Papp)'s greater than −6, and only three were not detected in the acceptor well. Under the same conditions, the small molecule drug propranolol achieved log(Papp) of −5.36 (FIG. 16). As expected, designs with exposed polar groups, particularly side chain hydroxyls and primary amides, had lower permeabilities. Overall, the hydrogen-bond containing designs were more permeable than the torsionally-optimized based designs, likely due to fewer exposed backbone polar groups.
PAMPA: Stock solutions of each peptide were prepared gravimetrically by dissolving ca. 1-3 mg of peptide in either 100% MeOH or 100% DMSO to produce ca. 1-10 mM peptide solutions. These stock solutions were stored at 4° C. when not in use. Samples for PAMPA experiments and calibration curves were prepared by diluting these stock solutions to produce 1.2 mL of 20 uM peptide in PBS supplemented with either 5% DMSO, or 10% MeOH. […] The concentration of each peptide in the donor and acceptor wells was quantified by LCMS after approximately 19 hours. […]

Row | SMILES | Papp at 20 uM
26 | CC(C)NCC(O)COc1cccc2ccccc12 (centres unmarked) [propranolol] | 4.37 ×10⁻⁶ cm/s
